From PubChem BioAssay (NCI)
Values joined by “and” are separate entries in the source; they are usually repeats but may differ in a detail not shown here. Equal entries are not always repeated.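 Results reflect a 48-hour exposure of cells in 96-well plates to compound at five concentrations. GI50 = concentration required for 50% inhibition of growth. The concentration for full growth arrest is given as TGI.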

Legend:
Assay in all cases: NCI tumour cell line growth inhibition, 48 h
EKVX NSCLC = test system: EKVX NSCLC
HOP-62 NSCLC = test system: HOP-62 NSCLC
M14 melanoma = test system: M14 melanoma
NCI-H23 lung = test system: NCI-H23 lung
OVCAR-3 ovarian = test system: OVCAR-3 ovarian
RXF 393 renal = test system: RXF 393 renal
SN12C renal = test system: SN12C renal
SNB-19 CNS = test system: SNB-19 CNS
UACC-62 melanoma = test system: UACC-62 melanoma
MCF7 breast = test system: MCF7 breast

Compound	TGI (EKVX NSCLC)	TGI (HOP-62 NSCLC)	TGI (M14 melanoma) [µM]	TGI (NCI-H23 lung) [µM]	TGI (OVCAR-3 ovarian) [µM]	TGI (RXF 393 renal)	TGI (SN12C renal) [µM]	TGI (SNB-19 CNS) [µM]	TGI (UACC-62 melanoma) [µM]	GI50 (HOP-62 NSCLC) [µM]	GI50 (M14 melanoma) [µM]	GI50 (MCF7 breast) [µM]	TGI (MCF7 breast)	GI50 (NCI-H23 lung) [µM]	GI50 (OVCAR-3 ovarian) [µM]	GI50 (RXF 393 renal) [µM]	GI50 (SN12C renal) [µM]	GI50 (SNB-19 CNS) [µM]	GI50 (UACC-62 melanoma) [µM]	GI50 (EKVX NSCLC) [µM]
O=C(/C=C/c1ccc([N+](=O)[O-])o1)N1CCN(Cc2ccccc2)CC1	38.2 µM	34.6 µM	16.7	18.7	31.7	24.5 µM	21.3	30.5	20.6	–	–	–	–	–	–	–	–	–	–	–
COc1ccc(-c2onc(-c3ccc([N+](=O)[O-])cc3)c2C2=NCCN2)cc1	> 100 µM	> 100 µM	> 100	> 100	> 100	> 100 µM	> 100	> 100	> 100	–	–	–	–	–	–	–	–	–	–	–
CCNC(=O)CCN(C(=O)O)S(=O)(=O)c1ccc(NC(=O)c2ccccc2)cc1	> 100 µM	> 100 µM	> 100	> 100	> 100	–	> 100	> 100	> 100	–	–	–	–	–	–	–	–	–	–	–
O=[N+]([O-])c1cccc(C2N3CCCCC3[C@@H]3c4[nH]c5ccccc5c4CCN23)c1 (some centres not stated)	69.9 µM	30.2 µM	28	25.3	32.2	18.8 µM	27.6	45.6	19.9	–	–	–	–	–	–	–	–	–	–	–
COC(=O)c1s/c(=N\C(=S)N(C)C)n(-c2ccccc2)c1C(=O)OC	> 100 µM	> 100 µM	> 100	> 100	> 100	> 100 µM	> 100	> 100	> 100	–	–	–	–	–	–	–	–	–	–	–
COc1cc(/C=C(\C#N)C(=O)c2ccccc2)ccc1OCc1ccccc1	> 100 µM	> 100 µM	> 100	> 100	> 100	–	> 100	> 100	> 100	–	–	–	–	–	–	–	–	–	–	–
CC[C@H](NC(=O)[C@H](C)NC)C(=O)N1C[C@@H](O)C[C@H]1Cc1c(-c2[nH]c3cc(F)ccc3c2C[C@@H]2C[C@H](O)CN2C(=O)[C@H](CC)NC(=O)[C@H](C)NC)[nH]c2cc(F)ccc12	–	> 100 µM	> 100	> 100	> 100	> 20.1 µM	> 100	> 100	> 100	27.5	> 100	> 53.3	> 100 µM	> 65.3	> 100	2.27	> 100	> 100	> 100	–
CCOC(=O)c1cc(C#N)c(=O)n(/N=C(\C)c2ccncc2)c1O	> 100 µM	> 100 µM	> 100	> 100	> 100	–	> 100	> 100	> 100	> 100	> 100	> 100	> 100 µM	> 100	> 100	–	> 100	> 100	> 100	> 100
CCCCc1c2c(nc3c1CCC/C3=C\c1ccccc1)C(=O)CCC2	68.4 µM	42 µM	41.9	58.7	33.4	33 µM	47.4	44.2	44	–	–	–	–	–	–	–	–	–	–	–
Cc1[nH]c2ccccc2c1C1Cc2ccccc2N1C(=O)/C=C\C(=O)O (configuration not stated)	> 100 µM	> 100 µM	> 100	> 100	> 100	71.3 µM	> 100	68.6	72.3	–	–	–	–	–	–	–	–	–	–	–
CCCCCCCCC[C@@H]1CC(=O)OCC2OC(O[C@H](CCCCCCCCC)CC(=O)OCC3OC(O[C@H](CCCCCCCCC)CC(=O)OCC4OC(O1)C(O)C(O)C4O)C(O)C(O)C3O)C(O)C(O)C2O (some centres not stated)	25.1 µM	26.1 µM	10.2	30.6	32.1	30.9 µM	28	23.6	28.6	–	–	–	–	–	–	–	–	–	–	–
NNC(=O)/C(=C/c1ccc(Cl)c(Cl)c1)NC(=O)c1ccccc1	> 100 µM	> 100 µM	> 100	> 100	> 100	> 100 µM	> 100	> 100	> 100	–	–	–	–	–	–	–	–	–	–	–
CCN1CCN(C(=O)[C@]23CC[C@@H](C)[C@H](C)[C@@H]2C2=CC[C@@H]4[C@@]5(C)C/C(=C/c6ccncc6)C(=O)C(C)(C)[C@@H]5CC[C@@]4(C)[C@]2(C)CC3)CC1	3.41 µM	5.75 µM	–	3.41	2.94	2.79 µM	2.99	2.99	2.87	2.37	–	1.57	3.2 µM	1.75	1.56	1.39	1.63	1.58	1.53	1.47
Cn1c([N+](=O)[O-])cnc1/C=C1\Oc2ccccc2C1=O	–	4.42 µM	2.51	2.61	5.21	–	2.87	5.58	2.22	1.07	0.32	0.46	8.88 µM	0.37	0.527	–	0.593	1.47	0.522	–
COc1ccc([N+]2=NC(c3ccc([N+](=O)[O-])cc3)=NN(c3ccccc3)C2)cc1	> 100 µM	> 100 µM	–	> 100	> 100	> 100 µM	> 100	> 100	–	–	–	–	–	–	–	–	–	–	–	–
CCC1(CC)C(=O)OC(=O)C1(CC)CC	> 100 µM	> 100 µM	> 100	> 100	> 100	–	–	> 100	> 100	–	–	–	–	–	–	–	–	–	–	–
O=C1OC(CC(=O)c2ccc(Cl)c(Cl)c2)C(Cl)=C1Cl (configuration not stated)	> 100 µM	> 100 µM	> 100	> 100	> 100	> 100 µM	> 100	> 100	> 100	–	–	–	–	–	–	–	–	–	–	–
CC1=C(C(=O)Nc2ccccc2C)C(c2ccc(Cl)c(Cl)c2)C(C(=O)Nc2ccccc2C)=C(C)N1	> 100 µM	66.5 µM	35.3	56.7	49.8	41.6 µM	47.2	> 100	39.2	–	–	–	–	–	–	–	–	–	–	–
C=C1C(=O)O[C@H]2[C@H]1CC/C(CNC(=O)c1cc3cc(OC)ccc3[nH]1)=C\CC[C@@]1(C)O[C@@H]21	3 µM	13.8 µM	3.54	4.38	2.57	2.61 µM	4.87	21.7	3.61	3.22	1.5	–	–	1.77	1.21	1.17	1.7	7.94	1.52	1.28

Compound	TGI (EKVX NSCLC)	TGI (HOP-62 NSCLC)	TGI (M14 melanoma) [µM]	TGI (NCI-H23 lung) [µM]	TGI (OVCAR-3 ovarian) [µM]	TGI (RXF 393 renal)	TGI (SN12C renal) [µM]	TGI (SNB-19 CNS) [µM]	TGI (UACC-62 melanoma) [µM]	GI50 (HOP-62 NSCLC) [µM]	GI50 (M14 melanoma) [µM]	GI50 (MCF7 breast) [µM]	TGI (MCF7 breast)	GI50 (NCI-H23 lung) [µM]	GI50 (OVCAR-3 ovarian) [µM]	GI50 (RXF 393 renal) [µM]	GI50 (SN12C renal) [µM]	GI50 (SNB-19 CNS) [µM]	GI50 (UACC-62 melanoma) [µM]	GI50 (EKVX NSCLC) [µM]
Cc1c[nH]c2c(O)cc3c(c12)[C@H](CCl)CN3C(=O)c1cc2cc(NC(=O)Nc3ccc4[nH]c(C(=O)N5C[C@@H](CCl)c6c5cc(O)c5[nH]cc(C)c65)cc4c3)ccc2[nH]1	7.21 nM and > 100 µM and 9.5e-07 µg/mL	18.9 µM and 8.9e-07 µg/mL and 0.000888 µg/mL	–	–	43.2	70.8 nM and > 100 µM and 0.000888 µg/mL	–	–	–	–	0.00359	–	21.9 µM and 0.00887 µg/mL and 8.88 µg/mL	–	–	–	–	–	–	–
O=C1c2ccccc2-c2cccc3ccc(Cc4ccc5ccccc5c4)c1c23	> 100 µM	> 100 µM	> 100	> 100	> 100	> 100 µM	> 100	> 100	> 100	–	–	–	–	–	–	–	–	–	–	–
O=S(=O)(N/N=C/c1ccc(/C=N/NS(=O)(=O)c2ccccc2)cc1)c1ccccc1	> 100 µM	> 100 µM	> 100	66.8	> 100	77.4 µM	> 100	–	54.1	–	–	–	–	–	–	–	–	–	–	–
CC(=O)[O-].CC(=O)[O-].[Pt+2].c1cscn1.c1cscn1	–	> 100 µM	> 100	> 100	> 100	> 100 µM	> 100	> 100	> 100	> 100	> 100	37.3	> 100 µM	> 100	> 100	> 100	> 100	> 100	> 100	–
CCN(CC)CCC(=O)NC1c2ccc(Cl)cc2Oc2c(C)cccc21 (configuration not stated)	36.9 µM	–	31.3	31.5	28.8	–	35.5	27.1	34	–	–	–	31 µM	–	–	–	–	–	–	–
CC(=O)Nc1ccc(C(=O)NN2C(=O)C(Cl)C2c2ccc(Cl)cc2)cc1 (configuration not stated)	> 100 µM	57.8 µM	> 100	> 100	52.3	–	> 100	59.2	> 100	–	–	–	> 100 µM	–	–	–	–	–	–	–
COC(=O)C1C(C(=O)OC)C2(OC)c3ccccc3-c3ccccc3C12 (configuration not stated)	> 100 µM	> 100 µM	> 100	> 100	> 100	> 100 µM	> 100	> 100	> 100	–	–	–	–	–	–	–	–	–	–	–
CCOC(=O)NC(=O)c1cn(CC(=O)NCC(=O)NCC(=O)NCCCN2CCN(CCCNC(=O)CNC(=O)CNC(=O)Cn3cc(C(=O)NC(=O)OCC)c(=O)[nH]c3=O)CC2)c(=O)[nH]c1=O	–	> 100 µM	> 100	> 100	> 100	–	> 100	> 100	> 100	–	–	–	–	–	–	–	–	–	–	–
COc1c2nc(CCl)[nH]c(=O)c2c(OC)c2nc(CCl)[nH]c(=O)c12	–	> 100 µM	> 100	> 100	> 100	> 100 µM	> 100	> 100	> 100	–	–	–	–	–	–	–	–	–	–	–
CC(C)CS(=O)(=O)/C(=C(\c1ccc(Br)cc1)S(=O)(=O)CC(C)C)c1ccc(Br)cc1	> 100 µM	> 100 µM	> 100	> 100	> 100	> 100 µM	> 100	> 100	> 100	–	–	–	–	–	–	–	–	–	–	–
Cc1c(NC(=O)C(C)(C)Br)c(=O)oc2c(C)c3occc(=O)c3cc12	> 100 µM	> 100 µM	> 100	> 100	> 100	> 100 µM	> 100	> 100	> 100	–	–	–	–	–	–	–	–	–	–	–
Cc1cc(Cl)ccc1NC(=O)CCCC(=O)C1CCCC1=O (configuration not stated)	> 100 µM	–	> 100	> 100	> 100	–	> 100	> 100	> 100	–	–	–	–	–	–	–	–	–	–	–
CC(=O)c1cccc(N2COC(C)(C)c3nc4ccccc4n3C2)c1	> 100 µM	> 100 µM	> 100	> 100	> 100	> 100 µM	> 100	> 100	> 100	–	–	–	–	–	–	–	–	–	–	–
CC/C(C)=C1\CCC(CN2CCOCC2)C1=O (configuration not stated)	34 µM	40.2 µM	31.4	30.6	29.5	22 µM	21.7	> 100	32.7	–	–	–	–	–	–	–	–	–	–	–
CC(=O)OCC1OC(N2C(=O)C(=O)c3cc(C)ccc32)C(OC(C)=O)C(OC(C)=O)C1OC(C)=O (configuration not stated)	> 100 µM	> 100 µM	> 100	> 100	> 100	90.7 µM	> 100	> 100	> 100	–	–	–	–	–	–	–	–	–	–	–
O=[N+]([O-])c1cccc(/C=N\NS(=O)(=O)c2ccc(Cl)cc2)c1O	> 100 µM	> 100 µM	> 100	> 100	> 100	> 100 µM	> 100	> 100	> 100	–	–	–	–	–	–	–	–	–	–	–
COc1ccc(NC(=O)C(=O)C(C(=O)c2ccccc2)C2OC(=O)c3ccccc32)c([N+](=O)[O-])c1 (configuration not stated)	> 100 µM	> 100 µM	> 100	> 100	–	> 100 µM	> 100	> 100	> 100	–	–	–	–	–	–	–	–	–	–	–
CCOC(=O)C(N)C[S][Sn]([CH3])([CH3])[Cl] (configuration not stated)	> 100 µM	> 100 µM	> 100	> 100	> 100	> 100 µM	> 100	> 100	> 100	> 100	> 100	–	–	> 100	> 100	> 100	> 100	> 100	65.9	> 100
